The source of these data is patent publication US4855324A, “Furyl, phenylene, and thienyl leukotriene B4 analogues” (G. D. Searle & Co., priority 1988, dated 1989).

The test system of assay [1] is Human Neutrophil. Description: Human Neutrophil Degranulation Assay (LTB4 induced, myeloperoxidase release). Type of assay: cell-based. Particulars: LTB4 5×10^-8 M, cytochalasin B, 37°C, read-out: Inhibition of LTB4 Induced Neutrophil Degranulation IC50. From the text: For use in both the "LTB4 receptor Binding Assay" and the "human Neutrophil Degranulation Assay", neutrophils were purified from venous blood of normal human donors using standard techniques of dextran sedimentaion, centrifugation on Histopaque^2 (density solution) and hypotonic lysis of erythrocytes (Boyum, A., Isolation of Leukocytes From Human Blood: Further Observations. Scand. J. Lab. Clin. Inves. 21 (Suppl. 97): 31, 1968). The purity of isolated neutrophilis was ≥95%.
LTB4 induced neutrophil degranulation was determined by measuring the release of myeloperoxidase activity into the incubation medium. Neturophils (3 ×10^6) in 1ml HBSS solution were preincubated with cytochalasin B(5μg) at 37°C. for 5 minutes, followed by preincubation with test compounds for 7 minutes. Neutrophils were then incubated for 2 to 20 minutes with either LTB4 (5 ×10^- 8M) or the chemotatic peptide f-met-leu-phe (5 ×10^- 6M) to induce degranulation. Following incubation, samples were centrifuged and myeloperoxidase was extracted from the cell pellets by sonication in phoshpate buffer containing 0.4% Triton X-100. Triton X-100 was also added to the supernatents to a concentration of 0.4%. The supernatants and the pellet extracts were then assayed spectrophotometrically for myeloperoxide activity by determining the rate of decomposition of H2 O2 withh o-dianisidine as hydrogen donor as described by Renlund, D. G., MacFarlane, J. L., Christensen, R. D., Lynch, R. E., and Rothstein, G., A Quantitative And Sensitive Method For Measurement Of Myeloperoxidase, Clinical Research 28:75A, 1980). Myeloperoxidase activity released into the supernatant was expressed as the percent of the average total activity (pellet plus supernatant).
The inhibition of LTB4 induced neutrophil degranulation was determined for representative compounds of this invention and their corresponding IC50 values were calculated (Table 1). The concentration of a compound which inhibited LTB4 induced neutrophil degranulation by 50% was determined to be its IC50 value.

For assay [2], the target named is T1, LTB4 receptors (Homo sapiens, UniProt Q15722).
T1 construct: neutrophils were purified from venous blood of normal human donors; endogenous in cells; host or cells: human neutrophils purified from venous blood of normal donors
T1 sequence (Q15722 whole entry): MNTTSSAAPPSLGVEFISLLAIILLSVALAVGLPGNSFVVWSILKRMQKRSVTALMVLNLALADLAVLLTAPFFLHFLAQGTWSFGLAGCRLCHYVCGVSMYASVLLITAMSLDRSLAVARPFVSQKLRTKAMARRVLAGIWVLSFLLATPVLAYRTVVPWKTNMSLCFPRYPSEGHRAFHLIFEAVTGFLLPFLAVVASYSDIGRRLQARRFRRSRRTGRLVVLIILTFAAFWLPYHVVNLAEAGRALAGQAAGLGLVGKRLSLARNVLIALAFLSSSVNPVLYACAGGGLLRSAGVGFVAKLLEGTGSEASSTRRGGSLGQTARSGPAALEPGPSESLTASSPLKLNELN
Description: LTB4 Receptor Binding Assay (inhibition of specific (3H) LTB4 binding to neutrophils). Particulars: 0.6nM (3H) LTB4, human neutrophils, 0°C, 45 minutes, pH 7.4. The procedure:
Neutrophils (4-6×10^6) in 1ml of Hanks' balanced salt solution containing 10mM Hepes Buffer (HBSS), pH 7.4 and 30 μM nordihydroguaiaretic acid were incubated with 0.6nM (^3 H) LTB4 in the presence or absence of test compounds. The incubation was carried out at 0°C. for 45 minutes and terminated by adding 5ml of ice-cold HBSS followed by rapid filtration of incubation mixture under vacuum through GF/C glass fiber filters. The filters were further washed with 10ml HBSS and their radioactivity determined. Specific binding was defined as the difference between total binding and nonspecific binding which was not displaced by 10^- 7M unlabeled LTB4.

A short description of assay [3]: Boyden Chamber Inhibition (as Antagonist). Type of assay: cell-based. The note with it: at 10^-5 (concentration unit not given).

As to `CCCCCCCCC(O)/C=C/C=C/c1ccc(C(=O)CCCC(=O)O)s1` (stereo not drawn), the values for the IC50 in assay [1] and in assay [2] were 1.8 µM and 4.1 µM, respectively. For the same compound, the “Boyden Chamber Inhibition at 10^-5 (as Antagonist)” value (“Boyden Chamber Inhibition” for short) in assay [3] turned out to be 30%.

On to `CCCCCCCCC(O)/C=C/C=C/c1ccccc1C(=O)CCCC(=O)O` (stereo not drawn), for which the IC50 came out at 1 µM in assay [1] and 3 µM in assay [2]. In assay [3], the “Boyden Chamber Inhibition” value was determined as 8%.

Regarding `CCCCCCCCC(O)/C=C/C=C/c1ccc(C(O)CCCC(=O)O)s1` (stereo not drawn), the IC50 in assay [1] worked out at 5.2 µM; in assay [2] it was 6.3 µM. Further, in assay [3], the “Boyden Chamber Inhibition” value is on record as 33%.
